From patent publication US6790971B1, “19-Nor-steroids” (Aventis Pharma S.A., priority 1989, dated 2004) come the findings set out here.

The subject of assay [1] is MCF-7 mammary tumoral cells. The assay is described as follows: Anti-proliferative activity upon the growth of MCF-7 cells (DNA measurement with DABA). In kind it is cell-based. As to conditions: 6 days, inhibition of the increase of DNA, read-out: concentration which inhibited the growth of MCF7 to an extent of 50% (IC50). On the procedure: B. Anti-proliferative activity of the products of the invention upon the growth of MCF-7 mammary tumoral cells.
The MCF-7 strains were kept under culture in FCS(1) medium at 37° C. under a humid atmosphere containing 5% CO2 and the cells at subconfluence were harvested by trypsination (0.05% trypsine, 0.02% EDTA), then rinsed by gentle centrifugation. A sample of the cells in suspension was counted on Malassez cell.
The cells, resuspended in FCS medium, were seeded at a rate of 30,000 cells per pit in multi-pit plates (24 pits of 2.5 cm^2) and twenty four hours after seeding (DO), the product to be tested was added to the medium in ethanolic solution (final concentration in ethanol: 0.1%), at a concentration of 10^−12 to 10^−6 M, the control pits receiving the same concentration of ethanol. The media were renewed every 48 hours and at the end of the experiment (D6), the medium was sucked off and the cells were immediately fixed with 150 microliters of methanol to estimate the DNA. The anti-proliferative activity of the products was evaluated by their capacity to inhibit the increase of DNA.
The DNA was measured by a fluorimetric method employing DABA (3,5-diaminobenzoic acid) (2): 150 microliters of DABA were added to each of the pits and the plates were then incubated for 45 minutes at 56° C., then 2 ml of 1 N HCl were added. The fluorescence was measured with the aid of a fluorimeter (length of the exiting wave: 408 nm, length of the emitting wave: 501 nm). The quantity of DNA per pit was evaluated with reference to a standard scale obtained by treating a standard DNA from calf thymus under the same conditions.
The concentration in nM which inhibited the growth of MCF7 to an extent of 50% (IC50) was determined in the manner indicated below:
(1) The fetal calf serum (FCS) culture medium was prepared as follows: MEM medium (minimal essential medium) to which were added:
Non-essential amino acids (GIBCO),
Peni-strepto (100 U/ml penicillin, 0.1 mg/ml streptomycin),
Fetal calf serum containing no steroids (10% final concentration).
(2) Puzas and Goodman, Analytical Biochemistry, Vol. 86, pp. 50, 1978.

For assay [2], the target named is T1, Mineralocorticoid Receptor of the Rats' Kidney (Rattus norvegicus, UniProt P22199).
T1 construct: The kidneys were then removed, decapsulated and homogenized at 0° C; from tissue; host or cells: kidney cytosol (105,000 g supernatant) of adrenalectomised male Sprague-Dawley rats
T1 sequence (P22199 1-981): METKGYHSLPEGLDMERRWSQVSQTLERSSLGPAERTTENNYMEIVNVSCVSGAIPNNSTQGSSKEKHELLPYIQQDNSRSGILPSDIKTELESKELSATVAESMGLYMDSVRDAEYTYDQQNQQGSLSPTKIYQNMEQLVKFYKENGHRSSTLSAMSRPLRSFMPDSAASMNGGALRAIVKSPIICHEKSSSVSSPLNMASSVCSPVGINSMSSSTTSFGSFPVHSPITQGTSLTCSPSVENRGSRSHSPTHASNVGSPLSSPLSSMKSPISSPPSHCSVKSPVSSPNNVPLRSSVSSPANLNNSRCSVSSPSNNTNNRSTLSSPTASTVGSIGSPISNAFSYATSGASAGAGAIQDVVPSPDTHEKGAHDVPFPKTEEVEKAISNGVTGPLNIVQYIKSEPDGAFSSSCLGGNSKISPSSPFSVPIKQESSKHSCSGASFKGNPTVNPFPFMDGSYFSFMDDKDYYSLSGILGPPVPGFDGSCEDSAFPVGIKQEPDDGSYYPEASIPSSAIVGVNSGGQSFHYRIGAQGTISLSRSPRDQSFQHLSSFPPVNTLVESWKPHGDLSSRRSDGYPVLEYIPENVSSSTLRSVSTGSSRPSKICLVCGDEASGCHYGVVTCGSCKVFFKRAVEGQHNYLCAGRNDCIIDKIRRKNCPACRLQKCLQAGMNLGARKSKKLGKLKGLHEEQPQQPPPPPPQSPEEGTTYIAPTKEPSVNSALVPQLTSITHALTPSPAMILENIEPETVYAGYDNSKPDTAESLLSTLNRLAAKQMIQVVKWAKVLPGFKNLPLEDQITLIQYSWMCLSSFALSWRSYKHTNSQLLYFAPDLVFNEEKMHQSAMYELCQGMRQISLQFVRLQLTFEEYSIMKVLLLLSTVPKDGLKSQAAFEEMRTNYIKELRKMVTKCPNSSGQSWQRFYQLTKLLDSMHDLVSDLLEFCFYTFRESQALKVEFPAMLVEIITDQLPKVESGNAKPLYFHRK
In words: Relative affinity of the bond, mineralocorticoid receptor (tritiated aldosterone displacement). As to conditions: RAB=100(CH)/(CX); for Relative affinity of the bond (RAB), Mineralocorticoid, 1 H: incubation 1 H at 0° C.; for Relative affinity of the bond (RAB), Mineralocorticoid, 24 H: incubation 24 H at 0° C. In kind it is binding. The protocol:
Mineralocorticoid Receptor of the Rats' Kidney:
Male Sprague-Dawley EOPS rats weighing 140 to 160 g were subjected to supraenalectomy 4 to 8 days earlier and were sacrificed and their kidneys were perfused in situ with 50 ml of a 10 mM Tris, 0.25 M saccharose, HCl buffer pH 7.4. The kidneys were then removed, decapsulated and homogenized at 0° C. with the aid of a Potter teflon-glass (1 g of tissue for 3 ml of buffer). The homogenate was centrifuged for 10 minutes at […] and 0° C. and then to eliminate the fixation of the tritiated aldosterone upon the glucocorticoid receptor, 11β-,17β-dihydroxy-21-methyl-Δ^1,4,6-pregnatrien-20-yn-3-one which was fixed uniquely upon the glucocorticoid receptor was added to the supernatant at a final concentration of 10^−6 M. This supernatant was ultracentrifuged at 105,000 g for 60 minutes at 0° C. and aliquots of the supernatant thus obtained were incubated at 0° C. with a constant concentration (T) of tritiated aldosterone in the presence of increasing concentrations ([…]) of the cold aldosterone or the cold product to be studied. After an incubation time (t), the concentration of bound tritiated aldosterone (B) was measured by the adsorption on dextran carbon technique.
Calculation of the Relative Affinty of the Bond
The calculation of the Relative Affinity of the Bond (RAB) was identical for all the receptors. The following 2 curves were traced; the percentage of the bound tritiated hormone [formula]
was a function of the logarithm of the concentration of the cold reference hormone and [formula]
as a function of the logarithm of the concentration of the cold product tested.
One determined the straight line of the equation [formula]
The intersections of the straight line I50 and of the curves make it possible to evaluate the concentrations of the cold reference hormone (CH) and of the tested cold product (CX) which inhibit to an extend of 50% the binding of the tritiated hormone upon the receptor. The relative affinity of the bond (RAB) of the tested product is determined by the equation

For `CCCCN(C)C(=O)CCCCCCCCCC[C@H]1C[C@]2(C)[C@@H](O)CC[C@H]2[C@@H]2CCc3cc(O)ccc3[C@@H]12` [Example 13, N-Butyl-3,17β-Dihydroxy-N-Methyl-11β-Δ^1,3,5(10)-Estratriene-Undecanamide], in assay [1], the IC50 stood at 0.5 nM. Further, in assay [2], the “Relative affinity of the bond (RAB), Mineralocorticoid, 1 H” value (shortened to “Relative affinity of the bond (RAB) … 1 H”) worked out at 0.19 and the “Relative affinity of the bond (RAB), Mineralocorticoid, 24 H” value (shortened to “Relative affinity of the bond (RAB) … 24 H”) was 0.00.

As for `CC(C)N(C)C(=O)CCCCCCCCCC[C@H]1C[C@]2(C)[C@@H](O)CC[C@H]2[C@@H]2CCc3cc(O)ccc3[C@@H]12` [Example 16, 3,17β-dihydroxy-N-methyl-N-isopropyl-11β-Δ^1,3,5(10)-estratriene undecanamide], the IC50 in assay [1] is 0.02 nM. Also, in assay [2], the “Relative affinity of the bond (RAB) … 1 H” value turned out to be 0 and the “Relative affinity of the bond (RAB) … 24 H” value was found to be 0.

As for `CN(Cc1ccccc1)C(=O)CCCCCCCCCC[C@H]1C[C@]2(C)[C@@H](O)CC[C@H]2[C@@H]2CCC3=CC(=O)CCC3=C12` [Example 17, N-benzyl-17β-hydroxy-N-methyl-3-oxo-11β-Δ^4,9-estradiene undecanamide], in assay [2], the “Relative affinity of the bond (RAB) … 1 H” value turned out to be 2 and the “Relative affinity of the bond (RAB) … 24 H” value turned out to be 0.5.

On to `CN(C)CCN(C)C(=O)CCCCCCCCCC[C@H]1C[C@]2(C)[C@@H](O)CC[C@H]2[C@@H]2CCC3=CC(=O)CCC3=C12` [Example 19, N-[2-(dimethylamino)-ethyl]-17β-hydroxy-N-methyl-3-oxo-11β-Δ^4,9-estradiene undecanamide], for which, in assay [2], the “Relative affinity of the bond (RAB) … 1 H” value was found to be 0.7 and the “Relative affinity of the bond (RAB) … 24 H” value is listed as 0.1.

For the molecule `CC#C[C@]1(O)CC[C@H]2[C@@H]3CCC4=CC(=O)CCC4=C3[C@@H](CCCCCCCCCCC(=O)NCCCC)C[C@@]21C` [Example 22, N-butyl-17β-hydroxy-3-oxo-17α-(1-propynyl)-11β-Δ^4,9-estradiene undecanamide], in assay [2], the “Relative affinity of the bond (RAB) … 1 H” value is recorded as 0 and the “Relative affinity of the bond (RAB) … 24 H” value turned out to be 0.

Take `CCCCN(C)C(=O)CCCCCCCCCCC[C@H]1C[C@]2(C)[C@@H](O)CC[C@H]2[C@@H]2CCc3cc(O)ccc3[C@@H]12` [Example 24, N-butyl-3,17β-dihydroxy-N-methyl-11β-Δ^1,3,5(10)-estratriene dodecanamide]: the IC50 in assay [1] worked out at 0.06 nM. Moreover, in assay [2], the “Relative affinity of the bond (RAB) … 1 H” value was 0 and the “Relative affinity of the bond (RAB) … 24 H” value is given as 0.

With “N-butyl-3,17β-dihydroxy-N-methyl-19-nor-11β-Δ^1,3,5(10)-pregnatrien-20-yn undecanamide [Example 21]”, the IC50 in assay [1] came to 0.02 nM. In assay [2], the “Relative affinity of the bond (RAB) … 1 H” value is on record as 0.4 and the “Relative affinity of the bond (RAB) … 24 H” value came out at 0.5.
